According to ChEMBL document CHEMBL2413072, “Synthesis and in vitro anticancer studies of novel C-2 arylidene congeners of lantadenes” (2013):

Columns and labels:
Format in all cases: functional
[1] = system: SW-620; experiment: Growth inhibition of human SW620 cells by sulforhodamine B assay
[2] = system: NCI-H522; experiment: Growth inhibition of human NCI-H522 cells by sulforhodamine B assay
[3] = system: HOP-92; experiment: Growth inhibition of human HOP92 cells by sulforhodamine B assay
[4] = system: UACC-257; experiment: Growth inhibition of human UACC257 cells assessed as cell growth at 10^-8 M by sulforhodamine B assay; conditions: read-out: Activity
[5] = system: SK-MEL-28; experiment: Growth inhibition of human SK-MEL-28 cells assessed as cell growth at 10^-8 M by sulforhodamine B assay; conditions: read-out: Activity
[6] = system: SF-539; experiment: Growth inhibition of human SF539 cells assessed as cell growth at 10^-8 M by sulforhodamine B assay; conditions: read-out: Activity
[7] = system: KM12; experiment: Growth inhibition of human KM12 cells assessed as cell growth at 10^-8 M by sulforhodamine B assay; conditions: read-out: Activity
[8] = system: HCT-116; experiment: Growth inhibition of human HCT116 cells assessed as cell growth at 10^-8 M by sulforhodamine B assay; conditions: read-out: Activity
[9] = system: NCI-H522; experiment: Growth inhibition of human NCI-H522 cells assessed as cell growth at 10^-8 M by sulforhodamine B assay; conditions: read-out: Activity
[10] = system: UO-31; experiment: Growth inhibition of human UO31 cells by sulforhodamine B assay
[11] = system: TK-10; experiment: Growth inhibition of human TK10 cells by sulforhodamine B assay
[12] = system: A498; experiment: Growth inhibition of human A498 cells by sulforhodamine B assay
[13] = system: OVCAR-5; experiment: Growth inhibition of human OVCAR5 cells by sulforhodamine B assay
[14] = system: LOX IMVI; experiment: Growth inhibition of human LOXIMVI cells by sulforhodamine B assay
[15] = system: U-251; experiment: Growth inhibition of human U251 cells by sulforhodamine B assay
[16] = system: SF-295; experiment: Growth inhibition of human SF295 cells by sulforhodamine B assay
[17] = system: MDA-MB-231; experiment: Growth inhibition of human MDA-MB-231 cells assessed as cell growth at 10^-4 M by sulforhodamine B assay; conditions: read-out: Activity
[18] = system: MCF7; experiment: Growth inhibition of human MCF7 cells assessed as cell growth at 10^-4 M by sulforhodamine B assay; conditions: read-out: Activity
[19] = system: DU-145; experiment: Growth inhibition of human DU145 cells assessed as cell growth at 10^-4 M by sulforhodamine B assay; conditions: read-out: Activity
[20] = system: ACHN; experiment: Growth inhibition of human ACHN cells assessed as cell growth at 10^-4 M by sulforhodamine B assay; conditions: read-out: Activity
[21] = system: OVCAR-3; experiment: Growth inhibition of human OVCAR3 cells assessed as cell growth at 10^-4 M by sulforhodamine B assay; conditions: read-out: Activity
[22] = system: UACC-62; experiment: Growth inhibition of human UACC62 cells assessed as cell growth at 10^-4 M by sulforhodamine B assay; conditions: read-out: Activity
[23] = system: M14; experiment: Growth inhibition of human M14 cells assessed as cell growth at 10^-4 M by sulforhodamine B assay; conditions: read-out: Activity
[24] = system: NCI-H460; experiment: Growth inhibition of human NCI-H460 cells assessed as cell growth at 10^-4 M by sulforhodamine B assay; conditions: read-out: Activity
[25] = system: MDA-MB-468; experiment: Growth inhibition of human MDA-MB-468 cells assessed as cell growth at 10^-6 M by sulforhodamine B assay; conditions: read-out: Activity
[26] = system: PC-3; experiment: Growth inhibition of human PC3 cells assessed as cell growth at 10^-6 M by sulforhodamine B assay; conditions: read-out: Activity
[27] = system: SF-539; experiment: Growth inhibition of human SF539 cells assessed as cell growth at 10^-6 M by sulforhodamine B assay; conditions: read-out: Activity
[28] = system: A549; experiment: Growth inhibition of human A549/ATCC cells assessed as cell growth at 10^-6 M by sulforhodamine B assay; conditions: read-out: Activity
[29] = system: UO-31; experiment: Growth inhibition of human UO31 cells assessed as cell growth at 10^-7 M by sulforhodamine B assay; conditions: read-out: Activity
[30] = system: 786-0; experiment: Growth inhibition of human 786-0 cells assessed as cell growth at 10^-7 M by sulforhodamine B assay; conditions: read-out: Activity
[31] = system: OVCAR-3; experiment: Growth inhibition of human OVCAR3 cells assessed as cell growth at 10^-7 M by sulforhodamine B assay; conditions: read-out: Activity
[32] = system: SK-MEL-2; experiment: Growth inhibition of human SK-MEL-2 cells assessed as cell growth at 10^-7 M by sulforhodamine B assay; conditions: read-out: Activity
[33] = system: HT-29; experiment: Growth inhibition of human HT-29 cells assessed as cell growth at 10^-7 M by sulforhodamine B assay; conditions: read-out: Activity
[34] = system: NCI-H460; experiment: Growth inhibition of human NCI-H460 cells assessed as cell growth at 10^-7 M by sulforhodamine B assay; conditions: read-out: Activity
[35] = system: HOP-92; experiment: Growth inhibition of human HOP92 cells assessed as cell growth at 10^-7 M by sulforhodamine B assay; conditions: read-out: Activity
[36] = system: MDA-MB-468; experiment: Growth inhibition of human MDA-MB-468 cells assessed as cell growth at 10^-8 M by sulforhodamine B assay; conditions: read-out: Activity
[37] = system: BT-549; experiment: Growth inhibition of human BT549 cells assessed as cell growth at 10^-8 M by sulforhodamine B assay; conditions: read-out: Activity
[38] = system: CAKI-1; experiment: Growth inhibition of human CAKI-1 cells assessed as cell growth at 10^-8 M by sulforhodamine B assay; conditions: read-out: Activity
[39] = read-out: LC50 (the source's name)
[40] = read-out: pLC50 (the source's name) (converted)

C/C=C(/C)C(=O)O[C@@H]1CC(C)(C)C[C@H]2C3=CC[C@@H]4[C@@]5(C)CC[C@H](O)C(C)(C)[C@@H]5CC[C@@]4(C)[C@]3(C)CC[C@@]12C(=O)O [Reduced Lantadene A]
GI50 ([1]; read-out: GI50): 2.31 µM | CC50 [1, 39]: > 100 µM | TGI ([1]; read-out: TGI): 6.62 µM | GI50 ([1]; read-out: pGI50 (converted)): 2.29 µM | CC50 [1, 40]: > 100 µM | TGI ([1]; read-out: pTGI (converted)): 6.61 µM | GI50 ([2]; read-out: GI50): 2.18 µM | CC50 [2, 39]: 32.4 µM | TGI ([2]; read-out: TGI): 5.42 µM | GI50 ([2]; read-out: pGI50 (converted)): 2.19 µM | CC50 [2, 40]: 32.4 µM | TGI ([2]; read-out: pTGI (converted)): 5.37 µM | GI50 ([3]; read-out: GI50): 1.41 µM | CC50 [3, 39]: 6.21 µM | TGI ([3]; read-out: TGI): 2.96 µM | GI50 ([3]; read-out: pGI50 (converted)): 1.41 µM | CC50 [3, 40]: 6.17 µM | TGI ([3]; read-out: pTGI (converted)): 2.95 µM | growth at 0.01 µM [4]: 93% | growth at 0.01 µM [5]: 90% | growth at 0.01 µM [6]: 100% | growth at 0.01 µM [7]: 104% | growth at 0.01 µM [8]: 97% | growth at 0.01 µM [9]: 102% | GI50 ([10]; read-out: GI50): 1.64 µM | CC50 [10, 39]: 5.91 µM | TGI ([10]; read-out: TGI): 3.12 µM | GI50 ([10]; read-out: pGI50 (converted)): 1.66 µM | CC50 [10, 40]: 5.89 µM | TGI ([10]; read-out: pTGI (converted)): 3.09 µM | GI50 ([11]; read-out: GI50): 2.25 µM | CC50 [11, 39]: 9.55 µM | TGI ([11]; read-out: TGI): 4.63 µM | GI50 ([11]; read-out: pGI50 (converted)): 2.24 µM | CC50 [11, 40]: 9.55 µM | TGI ([11]; read-out: pTGI (converted)): 4.68 µM | GI50 ([12]; read-out: GI50): 1.54 µM | CC50 [12, 39]: 7.38 µM | TGI ([12]; read-out: TGI): 3.37 µM | GI50 ([12]; read-out: pGI50 (converted)): 1.55 µM | CC50 [12, 40]: 7.41 µM | TGI ([12]; read-out: pTGI (converted)): 3.39 µM | GI50 ([13]; read-out: GI50): 3.38 µM | CC50 [13, 39]: 45.5 µM | TGI ([13]; read-out: TGI): 8.9 µM | GI50 ([13]; read-out: pGI50 (converted)): 3.39 µM | CC50 [13, 40]: 45.7 µM | TGI ([13]; read-out: pTGI (converted)): 8.91 µM | GI50 ([14]; read-out: GI50): 3.39 µM | CC50 [14, 39]: 66.8 µM | TGI ([14]; read-out: TGI): 13 µM | GI50 ([14]; read-out: pGI50 (converted)): 3.39 µM | CC50 [14, 40]: 66.1 µM | TGI ([14]; read-out: pTGI (converted)): 12.9 µM | GI50 ([15]; read-out: GI50): 1.59 µM | CC50 [15, 39]: 6.6 µM | TGI ([15]; read-out: TGI): 3.24 µM | GI50 ([15]; read-out: pGI50 (converted)): 1.58 µM | CC50 [15, 40]: 6.61 µM | TGI ([15]; read-out: pTGI (converted)): 3.24 µM | GI50 ([16]; read-out: GI50): 1.62 µM | CC50 [16, 39]: 7.74 µM | TGI ([16]; read-out: TGI): 3.54 µM | GI50 ([16]; read-out: pGI50 (converted)): 1.62 µM | CC50 [16, 40]: 7.76 µM | TGI ([16]; read-out: pTGI (converted)): 3.55 µM | growth at 100 µM [17]: -63% | growth at 100 µM [18]: -39% | growth at 100 µM [19]: -46% | growth at 100 µM [20]: -69% | growth at 100 µM [21]: -48% | growth at 100 µM [22]: -70% | growth at 100 µM [23]: -48% | growth at 100 µM [24]: -37% | growth at 1 µM [25]: 84% | growth at 1 µM [26]: 70% | growth at 1 µM [27]: 101% | growth at 1 µM [28]: 61% | growth at 0.1 µM [29]: 96% | growth at 0.1 µM [30]: 97% | growth at 0.1 µM [31]: 112% | growth at 0.1 µM [32]: 106% | growth at 0.1 µM [33]: 108% | growth at 0.1 µM [34]: 99% | growth at 0.1 µM [35]: 76% | growth at 0.01 µM [36]: 93% | growth at 0.01 µM [37]: 99% | growth at 0.01 µM [38]: 96%
